From patent publication US20160312240A1, “MODIFIED PYR/PYL RECEPTORS ACTIVATED BY ORTHOGONAL LIGANDS” (The Regents of the University of California, priority 2010, published 2016)

Key:
[1] = system: wild-type Columbia plants; test: Water loss from detached aerial rosettes; assay type: in vivo, Arabidopsis; conditions: 100 μM spray, approximately 16 hours pretreatment, FIG. 7
Protocol: FIG. 7. […] Columbia plants were treated with control, 100 μM fenhexamid, or 100 μM ABA containing solutions. Plants were treated as described in the Examples section below and water loss from aerial rosettes was measured after detachment.
Transgenic or control (wild-type) plants were grown under a 16 hr light/8 hr dark cycle for 3 weeks and then treated with either 100 μM (+)-ABA, 100 μM fenhexamid, or control (containing 0.1% Tween-20, 0.1% DMSO). ABA treatments were conducted as a positive control. The plants were sprayed in the evening prior to conducting water loss experiments. The next morning, approximately 16 hours post-treatment, the above-ground rosettes of the experimental samples were collected and transferred to weighing dishes, 8 plants per measured sample, and maintained under ˜90-100 μEinstein/m^2 fluorescent light illumination. Four groups of eight plants were measured per time point at 20 min intervals. The experiments were repeated three times over the course of an eight-week interval. […] It should be noted, however, that ABA can activate all of the PYR/PYL receptors in a plant genome (at least 13 in Arabidopsis), while fenhexamid is selectively activating a single engineered receptor, PYL2^K64R,Y124H,M164I,V67I,V114I. […]

PYL2 K64R,Y124H,M164I = target: T1, PYL2 K64R,Y124H,M164I (Arabidopsis thaliana, UniProt O80992, K64R/M164I/Y124H); test: Yeast two-hybrid assay, strain Y190 pAD-HAB1, X-gal staining; assay type: cell-based; conditions: FIG. 3A
T1 construct: expressed in transfected cells; host or cells: Saccharomyces cerevisiae Y190 pAD-HAB1
Protocol: (§1) FIGS. 3A-3B. […] FIG. 3A. […] In addition, pocket residue mutations at V114I and/or V67I were introduced. The mutants (listed on left side of panel) were constructed in pBD-PYL2 and transformed into Y190 pAD-HAB1 yeast cells. The transformants were then grown on increasing concentrations of fenhexamid and scored for responsiveness using X-gal staining, performed as described in Park et al., 2009. […] FIG. 3B. In vitro characterization of PYL2 K64R, Y124H, M164I, V67I, V114I mutant. Recombinant wild-type and mutant PYL2 proteins were produced as described previously and used in PP2C assays, as described previously (Park et al., 2009), with the exception that a 2:1 ratio of receptor for phosphatase was used.
(§2) PYR1 is a member of the PYR/PYL receptor protein family, which in Arabidopsis contains 14 members. […] Given the conserved nature of these residues, we speculated that fenhexamid sensitivity could be engineered into other receptor family members by mutating homologous residues in other PYR/PYL receptors. To test this, we introduced the homologous mutations in PYL2 (K64R, corresponding to K59R in PYR1; Y124H, corresponding to Y120H in PYR1; and M164I, corresponding to M158I in PYR1), creating the mutant PYL2^K64R,Y124H,M164I. […]

[2] = target: T2, PYL2 K64R,Y124H,M164I,V67I,V114I (Arabidopsis thaliana, UniProt O80992, K64R/M164I/V114I/V67I/Y124H); test: as above; assay type: cell-based; conditions: FIG. 3A
T2 construct: expressed in transfected cells; host or cells: Saccharomyces cerevisiae Y190 pAD-HAB1
Protocol: as §1, §2

[3] = target: T2, PYL2 K64R,Y124H,M164I,V67I,V114I; test: In vitro PP2C inhibition assay, 2:1 receptor to phosphatase; assay type: biochemical; conditions: FIG. 3B
Protocol: as §1, §2

T2 sequence (Q9CAJ0 23-511): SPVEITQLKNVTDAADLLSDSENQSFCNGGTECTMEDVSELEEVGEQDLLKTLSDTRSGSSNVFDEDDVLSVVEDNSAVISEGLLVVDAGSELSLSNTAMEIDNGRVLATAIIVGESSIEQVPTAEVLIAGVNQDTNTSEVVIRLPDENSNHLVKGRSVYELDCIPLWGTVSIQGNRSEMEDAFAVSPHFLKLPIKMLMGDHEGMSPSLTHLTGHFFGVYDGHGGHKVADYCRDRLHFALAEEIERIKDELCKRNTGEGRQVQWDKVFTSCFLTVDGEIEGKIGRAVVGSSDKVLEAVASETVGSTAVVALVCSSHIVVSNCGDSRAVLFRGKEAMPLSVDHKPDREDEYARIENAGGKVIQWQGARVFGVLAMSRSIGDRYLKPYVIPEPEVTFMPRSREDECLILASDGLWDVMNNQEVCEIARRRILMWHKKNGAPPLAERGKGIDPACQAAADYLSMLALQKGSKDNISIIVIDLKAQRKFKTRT
T2 sequence (O80992 whole entry K64R/V67I/V114I/Y124H/M164I): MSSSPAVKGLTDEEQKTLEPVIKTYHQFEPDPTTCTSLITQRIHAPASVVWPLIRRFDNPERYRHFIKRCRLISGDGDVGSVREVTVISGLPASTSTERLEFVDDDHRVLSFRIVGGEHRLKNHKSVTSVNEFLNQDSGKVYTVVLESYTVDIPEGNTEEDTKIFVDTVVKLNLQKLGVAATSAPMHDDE
T1 sequence (O80992 whole entry K64R/Y124H/M164I): as the sequence (O80992 whole entry K64R/V67I/V114I/Y124H/M164I) above, with I67V, I114V counted along it

**Q.** Which “Water loss from detached rosettes” value [1] does the source give for `CC1(C(=O)Nc2ccc(O)c(Cl)c2Cl)CCCCC1` [fenhexamid] here?
**A.** Its value is “does not affect water loss”.

**Q.** And the “fenhexamid responsiveness (yeast two-hybrid)” value (PYL2 K64R,Y124H,M164I)?
**A.** Its value is “does not show fenhexamid responsiveness”.

**Q.** And the “Response to fenhexamid in yeast assays” value [2]?
**A.** Its value is “respond”.

**Q.** What about the “Response to fenhexamid in in vitro PP2C inhibition assays” value [3] of the same compound?
**A.** The value was “respond”.
